Literature values in US11678659B2, “Use as rodenticides of compounds that inhibit blood coagulation” (priority 2014, dated 2023).

Experiments:
[1] = molecular target: T1, thrombin receptor PAR-1 (Homo sapiens, UniProt P25116)
T1 construct: endogenous in cells; host or cells: study subjects (in vivo), platelets
T1 sequence (P25116 22-425): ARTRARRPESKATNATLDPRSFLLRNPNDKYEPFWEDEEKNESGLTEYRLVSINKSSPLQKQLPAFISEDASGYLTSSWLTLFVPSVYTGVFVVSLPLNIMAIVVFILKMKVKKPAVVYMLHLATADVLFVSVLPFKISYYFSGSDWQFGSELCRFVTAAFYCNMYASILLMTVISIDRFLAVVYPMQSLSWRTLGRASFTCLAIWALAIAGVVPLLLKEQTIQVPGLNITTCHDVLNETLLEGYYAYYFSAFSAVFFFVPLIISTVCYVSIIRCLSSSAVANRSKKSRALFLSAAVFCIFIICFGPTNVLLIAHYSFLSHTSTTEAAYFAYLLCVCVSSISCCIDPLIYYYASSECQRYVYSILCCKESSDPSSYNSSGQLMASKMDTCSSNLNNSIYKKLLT

[2] = molecular target: T2, thrombin (Homo sapiens, UniProt P00734); conditions: administration for more than 35 days
T2 construct: from tissue; host or cells: blood of human subjects (in vivo)

Row | SMILES | bleedings observed ([1]; one study) | liver enzymes ([1]; two phase II studies) | liver toxicity [2]
1 | Br.CCOc1cc2c(c(F)c1OCC)C(=N)N(CC(=O)c1cc(N3CCOCC3)c(OC)c(C(C)(C)C)c1)C2 [Atopaxar, 1-(3-tert-butyl-4-methoxy-5-morpholin-4-yl-phenyl)-2-(5,6-diethoxy-4-fluoro-3-imino-1H-isoindol-2-yl)ethanone-hydrobromide] | not statistically significant | increase in liver enzymes | –
2 | CCOC(=O)CN[C@@H](C(=O)N1CC[C@H]1C(=O)NCc1ccc(/C(N)=N\O)cc1)C1CCCCC1 [ximelagatran] | – | – | risk of liver toxicity
